Measured values taken from the supplement of paper PMC10307832.

Columns and labels:
Test in all cases: relative viability (nuclei count vs DMSO), 5 days (fraction); higher = more cells survive
CAL-12T = system: CAL-12T
Method in brief: (§1)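 The day after seeding in 1536-well plates, lung cancer cell lines were treated by pin tool with a single drug, or with a fixed anchor-drug dose together with five library-drug doses (not always all listed) in √10 steps. After 5 days, a combined fix-and-stain solution (final 0.05% Triton X-100, 1% formaldehyde, 1 ug/ml Hoechst) was added. Nuclei counted on 4× images gave relative viability as treated counts over vehicle counts, reported as the median of duplicate plates.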

EKVX = system: EKVX
Method in brief: as §1

H3255 = system: H3255
Method in brief: as §1

HCC-15 = system: HCC-15
Method in brief: as §1

HCC-827 = system: HCC-827
Method in brief: as §1

LCLC-97TM1 = system: LCLC-97TM1
Method in brief: as §1

LK-2 = system: LK-2
Method in brief: as §1

NCI-H1355 = system: NCI-H1355
Method in brief: as §1

NCI-H1650 = system: NCI-H1650
Method in brief: as §1

NCI-H1734 = system: NCI-H1734
Method in brief: as §1

NCI-H1755 = system: NCI-H1755
Method in brief: as §1

NCI-H1975 = system: NCI-H1975
Method in brief: as §1

NCI-H2228 = system: NCI-H2228
Method in brief: as §1

NCI-H2342 = system: NCI-H2342
Method in brief: as §1

NCI-H2405 = system: NCI-H2405
Method in brief: as §1

NCI-H322M = system: NCI-H322M
Method in brief: as §1

NCI-H520 = system: NCI-H520
Method in brief: as §1

NCI-H661 = system: NCI-H661
Method in brief: as §1

PC-14 = system: PC-14
Method in brief: as §1

PC-3 [JPC-3] = system: PC-3 [JPC-3]
Method in brief: as §1

RERF-LC-KJ = system: RERF-LC-KJ
Method in brief: as §1

In the case of `COc1cc2nccc(Oc3ccc(NC(=O)Nc4cc(C)on4)c(Cl)c3)c2cc1OC` [Tivozanib] + O=C(c1cc(Cc2n[nH]c(=O)c3ccccc23)ccc1F)N1CCN(C(=O)C2CC2)CC1 [Olaparib] (partner 8 µM), the relative viability (CAL-12T; first compound 0.005 µM) is reported as 0.666, the relative viability (CAL-12T; first compound 0.01581 µM) is reported as 0.654 and the relative viability (CAL-12T; first compound 0.05 µM) is reported as 0.75. The relative viability (CAL-12T; first compound 0.1581 µM) was 0.812, the relative viability (CAL-12T; first compound 0.5 µM) was 0.584 and the relative viability (EKVX; first compound 0.005 µM) was 0.801. It also gave a relative viability (EKVX; first compound 0.01581 µM) of 0.881, a relative viability (EKVX; first compound 0.05 µM) of 0.908 and a relative viability (EKVX; first compound 0.1581 µM) of 0.922. The relative viability (EKVX; first compound 0.5 µM) was 0.725, the relative viability (H3255; first compound 0.005 µM) was 0.544 and the relative viability (H3255; first compound 0.01581 µM) was 0.56. It also gave a relative viability (H3255; first compound 0.05 µM) of 0.541, a relative viability (H3255; first compound 0.1581 µM) of 0.602 and a relative viability (H3255; first compound 0.5 µM) of 0.513. For the same molecule, the relative viability (HCC-15; first compound 0.005 µM) was 0.661, the relative viability (HCC-15; first compound 0.01581 µM) was 0.709 and the relative viability (HCC-15; first compound 0.05 µM) was 0.755. For the same molecule, the relative viability (HCC-15; first compound 0.1581 µM) was 0.696, the relative viability (HCC-15; first compound 0.5 µM) was 0.553 and the relative viability (HCC-827; first compound 0.005 µM) was 0.572. It also gave a relative viability (HCC-827; first compound 0.01581 µM) of 0.719, a relative viability (HCC-827; first compound 0.05 µM) of 0.623 and a relative viability (HCC-827; first compound 0.1581 µM) of 0.612. The relative viability (HCC-827; first compound 0.5 µM) was 0.623, the relative viability (LCLC-97TM1; first compound 0.005 µM) was 0.35 and the relative viability (LCLC-97TM1; first compound 0.01581 µM) was 0.34. It also gave a relative viability (LCLC-97TM1; first compound 0.05 µM) of 0.321, a relative viability (LCLC-97TM1; first compound 0.1581 µM) of 0.427 and a relative viability (LCLC-97TM1; first compound 0.5 µM) of 0.436. For the same molecule, the relative viability (LK-2; first compound 0.005 µM) was 0.67, the relative viability (LK-2; first compound 0.01581 µM) was 0.759 and the relative viability (LK-2; first compound 0.05 µM) was 0.691. The relative viability (LK-2; first compound 0.1581 µM) was 0.573, the relative viability (LK-2; first compound 0.5 µM) was 0.613 and the relative viability (NCI-H1355; first compound 0.005 µM) was 0.732. For the same molecule, the relative viability (NCI-H1355; first compound 0.01581 µM) was 0.755, the relative viability (NCI-H1355; first compound 0.05 µM) was 0.765 and the relative viability (NCI-H1355; first compound 0.1581 µM) was 0.672. The relative viability (NCI-H1355; first compound 0.5 µM) was 0.753, the relative viability (NCI-H1650; first compound 0.005 µM) was 0.714 and the relative viability (NCI-H1650; first compound 0.01581 µM) was 0.94. It also gave a relative viability (NCI-H1650; first compound 0.05 µM) of 0.855, a relative viability (NCI-H1650; first compound 0.1581 µM) of 0.837 and a relative viability (NCI-H1650; first compound 0.5 µM) of 0.863. The relative viability (NCI-H1734; first compound 0.005 µM) was 0.716, the relative viability (NCI-H1734; first compound 0.01581 µM) was 0.6 and the relative viability (NCI-H1734; first compound 0.05 µM) was 0.743. It also gave a relative viability (NCI-H1734; first compound 0.1581 µM) of 0.564, a relative viability (NCI-H1734; first compound 0.5 µM) of 0.609 and a relative viability (NCI-H1755; first compound 0.005 µM) of 0.835. It also gave a relative viability (NCI-H1755; first compound 0.01581 µM) of 0.829, a relative viability (NCI-H1755; first compound 0.05 µM) of 0.936 and a relative viability (NCI-H1755; first compound 0.1581 µM) of 0.773. For the same molecule, the relative viability (NCI-H1755; first compound 0.5 µM) was 0.784, the relative viability (NCI-H1975; first compound 0.005 µM) was 0.753 and the relative viability (NCI-H1975; first compound 0.01581 µM) was 0.815. The relative viability (NCI-H1975; first compound 0.05 µM) was 0.756, the relative viability (NCI-H1975; first compound 0.1581 µM) was 0.76 and the relative viability (NCI-H1975; first compound 0.5 µM) was 0.662. The relative viability (NCI-H2228; first compound 0.005 µM) was 0.669, the relative viability (NCI-H2228; first compound 0.01581 µM) was 0.956 and the relative viability (NCI-H2228; first compound 0.05 µM) was 0.771. It also gave a relative viability (NCI-H2228; first compound 0.1581 µM) of 0.644, a relative viability (NCI-H2228; first compound 0.5 µM) of 0.723 and a relative viability (NCI-H2342; first compound 0.005 µM) of 0.433. It also gave a relative viability (NCI-H2342; first compound 0.01581 µM) of 0.404, a relative viability (NCI-H2342; first compound 0.05 µM) of 0.465 and a relative viability (NCI-H2342; first compound 0.5 µM) of 0.42. For the same molecule, the relative viability (NCI-H2405; first compound 0.005 µM) was 0.831, the relative viability (NCI-H2405; first compound 0.01581 µM) was 0.95 and the relative viability (NCI-H2405; first compound 0.05 µM) was 0.916. The relative viability (NCI-H2405; first compound 0.1581 µM) was 1.01, the relative viability (NCI-H2405; first compound 0.5 µM) was 0.669 and the relative viability (NCI-H322M; first compound 0.005 µM) was 0.656. The relative viability (NCI-H322M; first compound 0.01581 µM) was 0.811, the relative viability (NCI-H322M; first compound 0.05 µM) was 0.755 and the relative viability (NCI-H322M; first compound 0.1581 µM) was 0.72. The relative viability (NCI-H322M; first compound 0.5 µM) was 0.714, the relative viability (NCI-H520; first compound 0.005 µM) was 0.42 and the relative viability (NCI-H520; first compound 0.01581 µM) was 0.354. It also gave a relative viability (NCI-H520; first compound 0.05 µM) of 0.334, a relative viability (NCI-H520; first compound 0.1581 µM) of 0.315 and a relative viability (NCI-H520; first compound 0.5 µM) of 0.301. The relative viability (NCI-H661; first compound 0.005 µM) was 0.703, the relative viability (NCI-H661; first compound 0.01581 µM) was 0.708 and the relative viability (NCI-H661; first compound 0.05 µM) was 0.741. It also gave a relative viability (NCI-H661; first compound 0.1581 µM) of 0.77, a relative viability (NCI-H661; first compound 0.5 µM) of 0.699 and a relative viability (PC-14; first compound 0.005 µM) of 0.28. The relative viability (PC-14; first compound 0.01581 µM) was 0.316, the relative viability (PC-14; first compound 0.05 µM) was 0.262 and the relative viability (PC-14; first compound 0.1581 µM) was 0.376. The relative viability (PC-14; first compound 0.5 µM) was 0.306, the relative viability (PC-3 [JPC-3]; first compound 0.01581 µM) was 1.22 and the relative viability (PC-3 [JPC-3]; first compound 0.05 µM) was 1.11. The relative viability (PC-3 [JPC-3]; first compound 0.1581 µM) was 1.15, the relative viability (PC-3 [JPC-3]; first compound 0.5 µM) was 1.09 and the relative viability (RERF-LC-KJ; first compound 0.005 µM) was 0.97. The relative viability (RERF-LC-KJ; first compound 0.01581 µM) was 0.954, the relative viability (RERF-LC-KJ; first compound 0.05 µM) was 0.974 and the relative viability (RERF-LC-KJ; first compound 0.1581 µM) was 0.929. The relative viability (RERF-LC-KJ; first compound 0.5 µM) was 0.875.
